“Also recorded” adds a separate entry of the source. Marks after values point to notes of the source that are not given here.
Test system: vomiting induced by cisplatin in ferrets
Experiment: Cisplatin-induced emesis in ferrets, single oral administration
Type: in vivo, ferret
Conditions: for Proportion of animal vomiting: 60 min before cisplatin i.v., 5 h observation
Protocol: Cisplatin-induced emesis in ferrets is largely considered as the most suitable animal model for the study of drug activity against chemotherapy-induced vomiting in man (Georges L. King. Animal models in the study of vomiting. Can. J. Physiol. Pharmacol. 68, 260-268, 1988).
Three compounds, dixyrazine dihydrochloride and its (R) and (S) enantiomers were tested for their activity against vomiting induced by cisplatin in ferrets following single oral administration.
The study involved 14 groups of 8 male ferrets weighing between 0.93 kg and 1.45 kg purchased from the company MARSHALL FARMS (NEW YORK, U.S.). Groups were defined as follows: […]
group 1: control group dosed with the vehicle of test substances (sterile water),
group 2: method-control group dosed with a method-control substance, granisetron ([…], RBI®), at a dose of 0.3 mg/kg,
group 3 to 6: group dosed with diyyrazine dihydrochloride at 4 increasing doses of 7.5, 15, 30 and 60 mg/kg,
group 7 to 10: group dosed with the (R) enantiomer of dixyrazine dihydrochloride at 4 increasing doses of 7.5, 15, 30 and 60 mg/kg,
group 11 to 14: group dosed with the (S) enantiomer of drazine dihydrochloride at 4 increasing doses of 7.5, 15, 30 and 60 mg/kg.
On the day prior to the test, animals were fasted and allowed access only to water.
On the morning of the day of the study, free access to food was allowed for 30 minutes. Subsequently, animals were again put on to a water-only fast for 30 minutes before administration of the three compounds, the vehicle or the method-control substance which were administrated orally in a volume of 5 ml/kg.
Cisplatin was administrated by the intravenous route at a dose of 115 mg/m^2 and in a volume of 115 ml/m^2 (i.e. approximately at 10 mg/kg), 60 minutes after treatment. […] Emesis was characterised by abdominal contractions, which were associated with expulsion or attempted expulsion of stomach contents.
The time to onset of emesis was noted. The number of episodes of vomiting and the number of abdominal retches associated with episodes of emesis were also noted.

[1] = highest dose of 60 mg/kg p.o., 60 mg/kg

CC(CN1CCN(CCOCCO)CC1)CN1c2ccccc2Sc2ccccc21 (racemic) [Dixyrazine, 2-(2-(4-(2-methyl-3-(10H-phenothiazin-10-yl)propyl)-1-piperazinyl)ethoxy)ethanol, reference compound]
Time to onset of emesis (7.5 mg/kg p.o.): 90 min
Proportion of animal vomiting (7.5 mg/kg p.o.): 8/8
Time to onset of emesis (15 mg/kg p.o.): 76 min
Proportion of animal vomiting (15 mg/kg p.o.): 5/8
Time to onset of emesis (30 mg/kg p.o.): 73 min
Proportion of animal vomiting (30 mg/kg p.o.): 7/8
Time to onset of emesis (60 mg/kg p.o.): 81 min
suppression of vomiting, number of animals (60 mg/kg p.o.): 5 animals out of 8
Proportion of animal vomiting (60 mg/kg p.o.): 3/8*
antiemetic effect (in words) [1]: induced an antiemetic effect
effect on time to onset of emesis (in words) [1]: no effect; also recorded: did not alter this variable
antiemetic effect (in words) (highest dose of 60 mg/kg p.o., listed as dixyrazine dihydrochloride, 60 mg/kg): significantly reduce cisplatin-induced emesis
